For data set [1], the target named is T1, Candida antartica lipase fraction B (CALB) (Moesziomyces antarcticus, UniProt P41365).
T1 construct: purchased Boehringer Mannheim CHIRAZYME L-2
T1 sequence (P41365 26-342): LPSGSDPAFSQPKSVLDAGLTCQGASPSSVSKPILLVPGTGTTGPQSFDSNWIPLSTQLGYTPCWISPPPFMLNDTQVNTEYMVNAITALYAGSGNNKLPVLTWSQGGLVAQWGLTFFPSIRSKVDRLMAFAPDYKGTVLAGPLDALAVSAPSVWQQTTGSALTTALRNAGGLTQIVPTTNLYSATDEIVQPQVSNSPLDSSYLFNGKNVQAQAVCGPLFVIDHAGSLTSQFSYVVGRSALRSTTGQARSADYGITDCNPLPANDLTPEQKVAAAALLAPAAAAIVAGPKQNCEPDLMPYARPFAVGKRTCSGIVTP
Format: biochemical. Here is the method: Using CALB for the diastereomeric resolution of five of the six possible pairs of diastereomers of N-(methoxycarbonyl)-4-hydroxyproline methyl esters produced the diastereomeric excesses at the indicated conversions listed in Table 1 below.
(§1) A 3.0 mL aqueous solution containing 50 mM N-(methoxycarbonyl)-trans-4-hydroxy-L-proline methyl ester and 50 mM N-(methoxycarbonyl)-cis-4-hydroxy-D-proline methyl ester in 0.100M potassium phosphate (pH 7.0) was mixed with 2.1 mg/mL of Candida antartica lipase fraction B at 25° C. The reaction was analyzed by removal of a 0.200 mL sample and mixing with an equivalent volume of 0.100M propionic acid (HPLC internal standard) in water. The resulting solution was filtered through a 10K molecular weight cut-off filter to remove the enzyme and the filtrate analyzed by high pressure liquid chromatography on a HPX-87H column (Bio-Rad, 30 cm×7.8 mm) to determine the percent conversion of each isomer of the diastereomeric mixture, and the diastereomeric excess of the N-(methoxycarbonyl)-cis-4-hydroxy-D-proline methyl ester.
A 2.0 mL aqueous solution containing 50 mM N-(methoxycarbonyl)-trans-4-hydroxy-L-proline methyl ester and 50 mM N-(methoxycarbonyl)-cis-4-hydroxy-D-proline methyl ester in 0.100M potassium phosphate (pH 7.0) was mixed with 403 mg of immobilized Candida antartica lipase fraction B (Boehringer Mannheim, CHIRAZYME® L-2, c.-f., C2, lyo.) at 31° C. The reaction was analyzed by mixing the entire reaction mixture with an equivalent volume of 0.100M propionic acid (HPLC internal standard) in water […]. An aliquot of the resulting solution was filtered through a 10K molecular weight cut-off filter to remove the enzyme and the filtrate analyzed by high pressure liquid chromatography on a HPX-87H column (Bio-Rad, 30 cm×7.8 mm) to determine the percent conversion of each isomer of the distereomeric mixture, and the diastereomeric excess of the N-(methoxycarbonyl)-cis-4-hydroxy-D-proline methyl ester. After 7 h, a 94% diastereomeric excess of N-(methoxycarbonyl)-cis-4-hydroxy-D-proline methyl ester was obtained at 49% conversion of the diastereomeric mixture (3.2% N-(methoxycarbonyl)-trans-4-hydroxy-L-proline methyl ester remained).
as §1, with “A 5.0” for “A 3.0”, “containing 51” for “containing 50”, “and 51” for “and 50”, “with 50” for “with 2.1”, “the N-(methoxycarbonyl)-trans-4-hydroxy-D-prolinemethyl” for “the N-(methoxycarbonyl)-cis-4-hydroxy-D-proline methyl”
A 5.0 mL aqueous solution containing 50 mM N-(methoxycarbonyl)-cis-4-hydroxy-D-proline methyl ester and 50 mM N-(methoxycarbonyl)-cis-4-hydroxy-L-proline methyl ester in 0.100M potassium phosphate (pH 7.0) and 50 mg/mL of Candida antartica lipase fraction B was mixed at 25° C. The reaction was analyzed by removal of two 0.200 mL aliquots at pre-determined times. One 0.200 mL aliquot was mixed with an equivalent volume of 0.100M propionic acid (HPLC internal standard) in water, and the resulting solution filtered through a 10K molecular weight cut-off filter to remove the enzyme. The filtrate was then analyzed by high pressure liquid chromatography on a HPX-87H column (Bio-Rad, 30 cm×7.8 mm) to determine the total percent conversion of both the D- and L-proline isomers of the N-(methoxycarbonyl)-cis-4-hydroxyproline methyl esters. […]

Data set [2] addresses T1, Candida antartica lipase fraction B (CALB). It counts as biochemical. The settings on record: 0.20m succinate, 5 h, pH 6. The procedure:
(§2) Reacting a 0.10M solution of the 1:1 mixture of KDP(MEMC) and KLP(MEMC) in 0.20M succinate (pH 6.0) at 25° C. for 5 h with approximately 1-3 mg/mL of Candida antartica lipase fraction B (CALB) produced a 95% ee (substrate) of KDP(MEMC) at 51% conversion. […] The calculated enantioselectivity (E) at 51% conversion was E=81.
(§3) The enzymatic hydrolysis reaction of KDP(MEMC) and KLP(MEMC) using CALB (described above) was repeated at pH 5.0 in 0.20M acetate buffer (Example 2), and a 100% ee (substrate) of the D-isomer was obtained at 51% conversion (E=>1000); the reaction rate was approximately 50% of the rate at pH 6.0, and the slight loss of the D-isomer at pH 5.0 was again observed in the absence of added enzyme (95% recovery at pH 5.0 after 24 h with no enzyme).
The procedure described in Example I was repeated using Candida antartica lipase fraction B (CALB), except that the reaction was run in 0.200M sodium cetate (pH 5.0) instead of the 0.20M sodium succinate buffer (pH 6.0) used for Candida antartica lipase fraction B in Example 1. Aqueous solutions (5.0 mL) containing varying concentrations of a racemic mixture of N-(methoxycarbonyl)-4-keto-D,L-proline methyl ester and CALB were mixed at 15° C., 25° C., 35° C. or 45° C.
An aqueous solution (5.0 mL) containing 25 mM N-(methoxycarbonyl)-4-keto-Dproline methyl ester and 25 mM N-(methoxycarbonyl)-4-keto-L-proline methyl ester in 0.200M sodium acetate (pH 5.0) was mixed with 2.5 g of immobilized Candida antartica lipase fraction B (Boehringer Mannheim, CHIRAZYME® L-2, c.-f., C2, lyo.) at 25° C. […] The dichloromethane extract was then analyzed by chiral gas chromatography on a Chiraldex G-TA column (Advanced Separation Technologies, Inc., 50 m×0.32 mm ID) to determine the amounts of the unreacted D- and L-isomers. After 31 h, an 85% enantiomeric excess of N-(methoxycarbonyl)-4-keto-D-proline methyl ester was obtained at 41% conversion of the racemic mixture.
A 200 mL aqueous solution containing 0.200M sodium acetate (pH 5.0), 1.3325 g of Candida antartica lipase fraction B, and 4.02 g of racemic N-(methoxycarbonyl)-4-keto-D,L-proline methyl ester (100 mM) was stirred at 25° C. After 24 h, an 96% enantiomeric excess of N-(methoxycarbonyl)-4-keto-D-proline methyl ester was obtained at 50% conversion of the racemic mixture. The reaction mixture was filtered using a 10,000 MWCO membrane filter (Amicon) to remove the enzyme catalyst, and the filtrate extracted with three 200 mL portions of dichloromethane. The combined organic extracts were dried over magnesium sulfate, filtered, and the dichloromethane removed from the filtrate by rotary evaporation at reduced pressure. Residual dichloromethane was removed from the resulting colorless oil at high vacuum (50 millitorr) to produce N-(methoxycarbonyl)-4-keto-D-proline methyl ester as a white solid (1.99 g, 99% isolated yield, 99% purity (by GC), 97% ee).
An aqueous solution (2.0 mL) containing 50 mM N-(ethoxycarbonyl)-4-keto-D-proline ethyl ester and 50 mM N-(ethoxycarbonyl)-4-keto-L-proline ethyl ester in 0.200M sodium acetate (pH 5.0) and 30 mg/mL of Candida antartica lipase fraction B was mixed at 25° C. […] The dichloromethane extract was then analyzed by chiral gas chromatography on a Chiraldex G-TA column (Advanced Separation Technologies, Inc., 50 m×0.32 mm ID) to determine the amounts of the unreacted D- and L-isomers. After 24 h, a 100% enantiomeric excess of N-(ethoxycarbonyl)-4-keto-D-proline ethyl ester was obtained at 51% conversion of the racemic mixture.
An aqueous solution (1.0 mL) containing 19 mM of N-(2-phenylacetyl)-4-keto-D-proline methyl ester and 19 mM of N-(2-phenylacetyl)-4-keto-L-proline methyl ester in 0.200M sodium acetate (pH 5.0) and 25 mg/mL of Candida antartica lipase fraction B was mixed at 25° C. […]

Data set [3] can be described thus: Stability of aqueous solutions of the esters in the absence of enzyme. The note with it: for isomer lost without added enzyme: pH 6.0, identical reaction conditions (0.20M succinate, 25° C.), 5 h. It counts as physicochemical. Here is the method:
as §2, §3
The pH of the reaction mixture is also chosen to optimize the reaction rate, the stability of the enzyme catalyst activity, and the stability of the ketoproline or hydroxyproline derivatives. The stability of aqueous solutions of N-(alkoxy-carbonyl)-4-ketoproline alkyl esters or N-(alkoxycarbonyl)-4-hydroxyproline alkyl esters were dependent on pH. […] For resolution of mixtures of N-(alkoxycarbonyl)-4-keto-D,L-proline alkyl esters, a pH range of from 3.0 to 6.0 is preferred, and a pH range of from 4.0 to 5.0 is most preferred. For resolution of diastereomeric mixtures of N-(alkoxycarbonyl)-4-hydroxy-proline alkyl esters, a pH range of from 3.0 to 7.5 is preferred, and a pH range of from 6.0 to 7.0 is most preferred.

Data set [4] has as its target T1, Candida antartica lipase fraction B (CALB). The data set can be described thus: Relative rates of hydrolysis of N-(alkoxycarbonyl)-trans-4-hydroxy-L-proline methyl esters by CALB. The settings on record: 50 mM substrate, 3.0 mg/mL CALB, 25° C. Format: biochemical. Here is the method:
A 2.0 mL aqueous solution containing 50 mM N-(methoxycarbonyl)-trans-4-hydroxy-L-proline methyl ester, or 50 mM N-(ethoxycarbonyl)-trans-4-hydroxy-L-proline methyl ester, or 50 mM N-(tert-butoxycarbonyl)-trans-4-hydroxy-L-proline methyl ester in 0.100M potassium phosphate (pH 7.0) and 3.0 mg/mL of Candida antartica lipase fraction B was mixed at 25° C. The reactions were analyzed by removal of 0.200 mL aliquots at pre-determined times and mixing the sample with an equivalent volume of 0.100M propionic acid (HPLC internal standard) in water, and filtering the resulting solution through a 10K molecular weight cut-off filter to remove the enzyme. The filtrate was then analyzed by high pressure liquid chromatography on a HPX-87H column (Bio-Rad, 30 cm×7.8 mm) to determine the percent conversion of the N-(alkoxycarbonyl)-trans-4-hydroxy-L-proline methyl ester. Complete hydrolysis of the methyl ester of the N-methoxy-, N-ethoxy-, and N-tert-butoxycarbonyl derivatives occurred in 5 h, 2 h, and 6 h, respectively, and the initial reaction rates were 5.7, 18.7, and 3.3 micromoles/h/mg enzyme catalyst, respectively.

Setting [5] is: candida antartica lipase b, 24 h, 51000 µM, pH 7.

Structures are written as SMILES. Where two headings read alike, the source gives them in different places.

The results in this text go back to patent US5928933A, “Process for the enzymatic resolution of N-(alkoxycarbonyl)-4-ketoproline alkyl esters or N-(alkoxycarbonyl)-4-hydroxyproline alkyl esters using Candida antarctica lipase B” (priority 1998, dated 1999).

Consider `COC(=O)[C@H]1C[C@@H](O)CN1C(=O)OC` [CHDP(MEMC), N-(methoxycarbonyl)-cis-4-hydroxy-D-proline methyl ester], for which, in data set [1] (under reaction conditions), the “methyl ester hydrolysis by CALB” value is given as “no hydrolysis”.
With `COC(=O)[C@@H]1C[C@H](O)CN1C(=O)OC` [CHLP(MEMC), N-(methoxycarbonyl)-cis-4-hydroxy-L-proline methyl ester], the isomer remaining entry is “no N-(methoxycarbonyl)-cis-4-hydroxy-L-proline methyl ester remained” in data set [1] (50 mM each, 50 mg/mL CALB, pH 7.0, 25° C., 47 h) and 3.0% in data set [1] (setting [5]).
With `COC(=O)[C@H]1CC(=O)CN1C(=O)OC` [KDP(MEMC), N-(methoxycarbonyl)-4-keto-D-proline methyl ester], the “share of isomer remaining at 51% conversion” value in data set [2] is 97.5%. The “recovery with no enzyme” value in data set [3] (pH 5.0, after 24 h) was 95%. Also, the “isomer lost without added enzyme” value in data set [3] is given as “approximately 3%”.
For `COC(=O)[C@@H]1CC(=O)CN1C(=O)OC` [KLP(MEMC), N-(methoxycarbonyl)-4-keto-L-proline methyl ester], the “share of isomer remaining at 51% conversion” value in data set [2] is 2.5%. In data set [3], the “isomer lost without added enzyme” value is given as “approximately 3%”.
`COC(=O)[C@H]1C[C@H](O)CN1C(=O)OC` [THDP(MEMC), N-(methoxycarbonyl)-trans-4-hydroxy-D-proline methyl ester] gave an isomer remaining in data set [1] (setting [5]) of 82.7%.
Turning to `COC(=O)[C@@H]1C[C@@H](O)CN1C(=O)OC` [THLP(MEMC), N-(methoxycarbonyl)-trans-4-hydroxy-L-proline methyl ester], the isomer remaining result in data set [1] (50 mM each, 2.1 mg/mL CALB, pH 7.0, 25° C., 24 h) was “no N-(methoxycarbonyl)-trans-4-hydroxy-L-proline methyl ester remained”; in data set [1] (50 mM each, 4.0 mg/mL CALB, pH 7.0, 25° C., 24 h), “no N-(methoxycarbonyl)-trans-4-hydroxy-L-proline methyl ester remained”; in data set [1] (candida antartica lipase b, 7 h, 50000 µM, pH 7) it was 3.2%. The “time to complete hydrolysis of the methyl ester” value in data set [4] (0.100M potassium phosphate pH 7.0) is given as 5 h. For the same compound, the initial reaction rate in data set [4] (pH 7.0) is 5.7 micromoles/h/mg enzyme catalyst.
